Measurements from patent publication US5760092A, “Allocolchinones and uses thereof” (Brandeis University, priority 1996, dated 1998).

System: SK-OV-3 ovarian cancer cells
Test: cells
Details: Homo sapiens

With COc1cc2c(c(OC)c1OC)-c1ccc(C(C)=O)cc1C(NC(C)=O)CC2 (stereo not shown) the activity at 100 µM (SK-OV-3, read-out: Percent Growth, log10 conc -4.0) was 9%, the activity at 10 µM (SK-OV-3, read-out: Percent Growth, log10 conc -5.0) was 15% and the activity at 1 µM (SK-OV-3, read-out: Percent Growth, log10 conc -6.0) was 14%. It also gave an activity at 0.1 µM (SK-OV-3, read-out: Percent Growth, log10 conc -7.0) of 19%, an activity at 0.01 µM (SK-OV-3, read-out: Percent Growth, log10 conc -8.0) of 12% and an activity at 0.001 µM (SK-OV-3, read-out: Percent Growth, log10 conc -9.0) of 44%. It also gave an activity at 0.0001 µM (SK-OV-3, read-out: Percent Growth, log10 conc -10.0) of 95%.
